This is an account of results in patent US9868763B2, “Modulators of protease activated receptors” (The University of Queensland, priority 2011, dated 2018).

SMILES strings stand for the structures. Entries after “also recorded” stand apart in the source; their conditions may differ.

Data set [1] relates to 2furoyl-LIGRLO-NH2-induced paw oedema. Kind of data set: PAR2 agonist-induced paw oedema. It is filed as in vivo, Wistar rat. How it is done:
The methods used are based on those previously described (Kelso, E. B., et al. Arthritis Rheum 2007, 56, 765-71; Kelso, E. B., et al. J Pharmacol Exp Ther 2006, 316, 1017-24; and Vergnolle, N. J Immunol 1999, 163, 5064-9). Male Wistar rats (n=3 per group) are used. Briefly, rats are given either 5 or 10 mg/kg of a compound of the present invention (p.o. via gavage in olive oil, approx. 500 μL, weight adjusted). Control animals receive only olive oil (500 μL p.o.). Two hours later, the PAR2 agonist 2-furoyl-LIGRLO (350 μg/paw in saline, 100 μL) is injected into the plantar surface (i.pl.) of the right paw pad using a 30 G needle. The left paw acts as a control, receiving saline only. Paw thickness and width are measured after 30 minutes and hourly using digital calipers (World Precision Instruments, USA) and swelling is calculated in area (mm^2; thickness multiplied by width) and expressed as a percentage change from baseline of each individual paw.
Based on previous methods (Kelso E B et al., J Pharmacol Exp Ther 2006, 316(3):1017-24; Suen J Y et al., Br J Pharmacol 2011, doi: 10.1111/j.1476-5381.2011.01610.x.), PAR2 antagonist 52 (10 mg/kg s.c.; n=4), ENMD-1068 (100 mg/kg s.c.; n=4) or vehicle control (DMSO s.c.; n=2) were administered to male Wistar rats. Baseline paw thickness and width were measured using digital calipers (World Precision Instruments, USA) expressed in area (mm^2; thickness×width). Fifteen minutes later, 2Furoyl-LIGLRO-NH2 (350 μg/paw in 100 μL saline) was injected into of the right hind paw pad (intraplantar, i.pl.). The left hind paw acted as a control, receiving saline only. In a separate experiment, vehicle (500 μL olive oil) versus PAR2 antagonist 52 (10 mg/kg p.o. in 500 μL olive oil) only were administered orally to two groups of rats (4 per group). Two hours later, β-tryptase (human recombinant lung, 20 μg in 100 μL saline) was injected into the right hind paw pad (vehicle in left for control) of all animals in each group. In all experiments, paw swelling was measured and expressed in area (mm^2; thickness×width) and plotted as % change from baseline of each individual paw.

In data set [2] the test system is collagen-induced arthritis. Kind of data set: Collagen-induced arthritis. It is filed as in vivo, Wistar rat. How it is done:
Protocols were based on those described (Lin H S et al., Br J Pharmacol 2007, 150(7):862-72; Nishikawa M et al., Arthritis Rheum 2003, 48(9):2670-81). Female Wistar rats (200-250 g, n′ 14) were immunised on Day 0 with Bovine nasal collagen (200 μg, 50:50 0.05 M acetic acid and Freund's incomplete adjuvant, s.c. tail base). Sham animals received vehicle only (no collagen; 50:50 0.05 M acetic acid and Freund's incomplete adjuvant, s.c. tail base). Boosters of the same dose were given on Day 7. Daily oral dosage of PAR-2 antagonist 52 (10 mg/kg in olive oil, 500 μL, p.o. weight adjusted) or olive oil vehicle (arthritic control, and sham) began on Day 7. Paw thickness and width (as above), body weight, disease activity score and mechanical nociceptive thresholds were measured every second day from Day 10-28.
Disease Activity Index (DAI) and mechanical hyperalgesia were assessed and qualitatively scored 0 to 4+. The DAI is based on multiple characteristic disease pathologies, incorporating changes in mobility, inflammation and discomfort/pain (maximum total score of 18). Plantar mechanical nociceptive thresholds were measured using Semmes Weinstein Von Frey Anaesthesiometers (Touch Test Sensory Evaluators, Stoelting, Ill., USA).
Day 28 all rats were euthanised and hind paws fixed in 4% paraformaldehyde, decalcified and embedded in paraffin wax and cut at […]. Sections were stained with H&E for general tissue architecture, with Masson's Trichrome for collagen loss or with alcian blue/safranin-O for mast cells (42). Tissue macrophages were labeled using ED1 monoclonal antibody (for immature rat macrophage/monocytes, Serotec) using standard IHC techniques. Microscopic analysis and cell counts were made from multiple (>6) images/paw with aid of ImageJ 1.42q software.

A short description of data set [3]: Water solubility. It is filed as physicochemical.
Data set [4] deals with SLIGRL-NH2-induced acute colonic inflammation. Kind of data set: PAR2-induced acute colonic inflammation. It is filed as in vivo, Wistar rat. The settings on record: 10 mg/kg p.o.
Protocol: A polyethylene catheter (1.7-mm outer diameter) was inserted 8 cm into the colon via the anus, through which SLIGRL-NH2 (1 mg/rat) or saline vehicle (500 l) was administered. Rats remained anesthetized for 10 min and maintained at an angle of 40° to prevent leakage from the anus. Rats were allowed to recover with food and water supplied. All rats were terminated at 10 h after induction and scored appropriately for disease activity index (DAI) and macroscopic disease (see Disease Activity Index below). Colon tissue was taken for wet/dry ratio and MPO assay.
DAI for both acute and chronic models was assessed and scored by an expert blinded to treatments. Scores incorporated mobility, gastrointestinal pathology, discomfort, and generalized sickness behaviour criteria (each scored 0-3). Any animal that reached stage 3 in any criteria was euthanized by CO2 inhalation and recorded as a disease-related mortality. Scores were summed and expressed as total disease score (maximum 12). DAI was measured at endpoint only (10 h) in the acute study and daily in the chronic TNBS study.
Colons were dissected post-mortem and given a macroscopic disease score based on that described previously (Bobin-Dubigeon et al., 2001) with some minor alterations (maximal score 14). The entire colon length was removed between the ileocolic and colorectal junction. Length and maximal distension width were measured. […]
In data set [5] the test system is MIN6 beta cells. In words: Glucose-stimulated insulin secretion (GSIS). In kind it is cell-based, mouse. The settings on record: 52 as pre-treatment before 2f-LIGRLO-NH2. How it is done:
Rat pancreas and mouse MIN6 beta cells were cultured in DMEM (25 mM glucose) supplemented with 15% fetal calf serum, 10 U/mL penicillin, 10 U/mL streptomycin, 2 mM L-glutamine and […] 2-mercaptoethanol. MIN6 beta cells were passaged and harvested using non-enzymatic cell dissociation solution (Sigma-Aldrich). Glucose-stimulated insulin secretion (GSIS) was performed as described next. MIN6 beta cells were seeded at 0.8×106 mL in a 96-well plate and cultured for 48 h. Cells were washed twice with glucose-free Krebs buffer (NaCl 119 mM, KCl 4.74 mM, CaCl2 2.54 mM, MgCl2 1.19 mM, KH2PO4 1.19 mM, NaHCO3 25 mM, HEPES (pH 7.4) 10 mM and 0.05% BSA). Cells were pre-treated with compound 52 for 30 min with Krebs buffer supplemented with 2.5 mM glucose. After incubation, cells were washed twice with glucose-free Krebs buffer. Glucose (2.5 mM and 25 mM) and compounds were added at specified concentration and incubated for 1 h. Supernatants were collected and insulin concentrations were determined by ELISA (Abeam).

[6] abbreviates: alcian blue/safranin-O staining.

Consider `CC[C@H](C)[C@@H](NC(=O)[C@H](CC1CCCCC1)NC(=O)c1ccno1)C(=O)N1CCC2(C=Cc3ccccc32)CC1` [Compound 52], for which the “paw oedema induced by other PAR2 agonists, e.g. trypsin, SLIGRL-NH2 and GB110” value in data set [1] (recently found) is on record as “inhibit paw oedema”. Further, the “paw oedema induced by 2furoyl-LIGRLO-NH2” value in data set [1] (s.c., 52 10 mg/kg, ENMD-1068 100 mg/kg, agonist 350 μg/paw) is reported as “reduced the paw oedema; also recorded: strongly reduce the paw oedema”. Moreover, the collagen-induced rat arthritis result in data set [2] (10 mg/kg/day p.o.) is reported as “attenuated collagen-induced rat arthritis”. For the same molecule, in data set [2] (10 mg/kg/day p.o., Day 28), the “lowered mechanical nociceptive threshold (mechanical hyperalgesia)” value is “prevented the mechanical hyperalgaesia; also recorded: removed”. Further, the “maximal hind paw swelling” value in data set [2] (10 mg/kg/day p.o., Day 28, change from baseline) was 25±9%. Moreover, the “maximal DAI (disease activity index)” value in data set [2] (10 mg/kg/day p.o., Day 28, maximum total score 18) came out at 1.6±0.9. The “animals affected by arthritic signs” value in data set [2] (10 mg/kg/day p.o., by Day 28) stood at 60%. Besides, in data set [2] (setting [6]), the “degranulated mast cells of all mast cells” value is given as “less than 5%” and the “inactive mast cells of all mast cells” value was ~80%. Further, in data set [2] (compared to CIA-controls), the “collagen loss (Masson's Trichrome)” value is “significantly reduced collagen loss”. Also, in data set [2] (daily administration), the “histopathological changes (H&E, tibia-talus joints)” value was “almost completely prevented”. Further, in data set [2] (rat, in vivo), the “arthritic-like up regulation of ED1-macrophages” value was “prevented”. The water solubility entry in data set [3] is given as “not water soluble enough to administer i.v”. Also, in data set [4], the “acute colonic inflammation induced by SLIGRL-NH2” value is “inhibited”; the “edema, mucin depletion, PAR2 receptor internalization and mastocytosis” value was “markedly reduced”. The glucose-stimulated insulin secretion result in data set [5] is listed as “normalised insulin secretion”.
